Measurements as given in patent publication US20100062464A1, “OXIDATIVE CHROMOGENIC COMPOUND OR SALT THEREOF AND PRODUCTION METHOD THEREOF, AND REAGENT COMPOSITION AND TEST INSTRUMENT USING THE SAME” (Terumo Kabushiki Kaisha, priority 2007, published 2010).

Key:
[1] = Residual ratio of coupler in test piece after thermal acceleration, HPLC (Example 9); type: physicochemical; details: 60° C., 1 hour, oven under vacuum; relative to test piece before thermal acceleration; HPLC 254 nm; FIG. 5
Procedure: Using a coating liquid having a composition shown in the following Table 6, a polyether sulfone membrane (membrane thickness: 130 μm) manufactured by Terumo Corporation was coated by Kiss-Coat method, and dried for 18 hours at 37° C. Then, the membrane was punched out to give a circle of φ6 mm as a test piece.
The test piece was placed in an oven under vacuum at 60° C. for 1 hour to be subjected to thermal acceleration. Then, the test piece was subjected to ultrasonic treatment for 10 minutes using 1 ml of an aqueous 60% acetonitrile solution, and extracted. The amount of reagent in the resultant extract was determined by HPLC under such conditions as of eluent: 60% of acetonitrile/50 mM of phosphate buffer (pH 7.5), eluent flow rate: 1 mL/minute, column temperature: 40° C., column: Hydrosphere C18 250×4.6 mm (manufactured by YMC Co., Ltd.), measuring wavelength: 254 nm, and injection volume: 20 μL. According to this method, the residual ratios of 4-AA and CP2 contained in the test piece after thermal acceleration were respectively compared with those of the test pieces before thermal acceleration. It is noted from the results shown in FIG. 5 that the residual ratio of 4-AA is not more than 70%, while the residual ratio of CP2 is approximately 100%. […]

[2] = Time-dependent change in reflection-absorbance of test piece (Example 7); details: test piece with MAOS, succinate buffer pH 5.0; human blood, hematocrit 40%, 400 mg/dL blood glucose; FIG. 3
Procedure: Using a coating liquid having a composition shown in the following Table 5, a polyether sulfone membrane (membrane thickness: 130 μm) manufactured by Terumo Corporation was coated by Kiss-Coat method, and dried for 18 hours at 37° C. Then, the membrane was cut to give a 1-cm square as a test piece.
The evaluation using blood was conducted by fixing the test piece in a reflectance spectrophotometer, adding 1 μL of specimen dropwise onto the test membrane from above, and measuring reflection-absorbance continuously or at the predetermined time.
The time-dependent changes in the reflection-absorbance was measured using as a coupler compound 4-amino antyprine (4-AA), CP1 or CP2, the test piece prepared by the above method, and human blood adjusted to 40% of hematocrit level and 400 mg/dL of blood glucose level as specimen. It is noted from the results shown in FIG. 3 that 15 seconds was required for reflection-absorbance to become steady when using 4-AA, a conventional coupler, while less than 5 seconds was required for reflection-absorbance to become steady when using CP1, and particularly when using CP2, reflection-absorbance reached peak within only about 3 seconds. That is, it was observed that a measuring time was able to be shortened by using the reagent composition of the present invention.

[3] = Maximum concentration of coating liquid for measuring glucose (solubility of coupler)
Procedure: As an example of a coating liquid composition for measuring glucose, an experiment was conducted to determine a maximum concentration of a coating liquid.
Basic Composition (in 100 mL Water)

SMILES	Residual ratio in test piece after thermal acceleration [1]	Time required for reflection-absorbance to become steady / reach peak [2]	Solubility as compared with 4-aminoantipyrine [3]	Solubility of coupler ([3]; pH 5)	Solubility of coupler ([3]; how many times the amounts of all reagents of the basic composition (100 mL water, TOOS, Triton X-100, citrate pH 5.0) can be increased and still give a uniform solution, coupler equimolar to 4-AA)
Cc1c(N)c(=O)n(-c2ccc(S(=O)(=O)O)cc2)n1C [CP2, 4-amino-1-(4-sulfophenyl)-2,3-dimethyl-5-pyrazolone]	approximately 100%	about 3 seconds	high solubility	10 times by volume	–
Cc1c(N)c(=O)n(-c2ccccc2)n1C [4-AA, 4-aminoantipyrine, reference compound]	not more than 70%	15 s	–	–	5 times by volume
Cc1c(N)c(=O)n(-c2ccc(C(=O)O)cc2)n1C [CP1, 4-amino-1-(4-carboxyphenyl)-2,3-dimethyl-5-pyrazolone]	–	less than 5 seconds	high solubility	8 times by volume	–
Cc1c(N)c(=O)n(-c2cccc(S(=O)(=O)O)c2)n1C [CP6, 4-amino-1-(3-sulfophenyl)-2,3-dimethyl-5-pyrazolone]	–	–	high solubility	10 times by volume	–
